Assay results: paper PMC4899947 (Bioorganic & medicinal chemistry letters, 2016)

Assays:
human mGlu4 = human mGlu4 (Homo sapiens, UniProt Q14833); test: Calcium mobilization mGlu4 PAM assay; type: cell-based
[1] = system: haloperidol-induced catalepsy; test: Reversal of haloperidol-induced catalepsy; type: in vivo, rat; details: rats; for reversal of haloperidol-induced catalepsy (in words): p.o.
[2] = Plasma and brain samples from the oral HIC study; type: in vivo, rat; details: rats
other mGlu receptors = test: Selectivity versus the other mGlu receptors

Chain of human mGlu4 (Q14833 33-912): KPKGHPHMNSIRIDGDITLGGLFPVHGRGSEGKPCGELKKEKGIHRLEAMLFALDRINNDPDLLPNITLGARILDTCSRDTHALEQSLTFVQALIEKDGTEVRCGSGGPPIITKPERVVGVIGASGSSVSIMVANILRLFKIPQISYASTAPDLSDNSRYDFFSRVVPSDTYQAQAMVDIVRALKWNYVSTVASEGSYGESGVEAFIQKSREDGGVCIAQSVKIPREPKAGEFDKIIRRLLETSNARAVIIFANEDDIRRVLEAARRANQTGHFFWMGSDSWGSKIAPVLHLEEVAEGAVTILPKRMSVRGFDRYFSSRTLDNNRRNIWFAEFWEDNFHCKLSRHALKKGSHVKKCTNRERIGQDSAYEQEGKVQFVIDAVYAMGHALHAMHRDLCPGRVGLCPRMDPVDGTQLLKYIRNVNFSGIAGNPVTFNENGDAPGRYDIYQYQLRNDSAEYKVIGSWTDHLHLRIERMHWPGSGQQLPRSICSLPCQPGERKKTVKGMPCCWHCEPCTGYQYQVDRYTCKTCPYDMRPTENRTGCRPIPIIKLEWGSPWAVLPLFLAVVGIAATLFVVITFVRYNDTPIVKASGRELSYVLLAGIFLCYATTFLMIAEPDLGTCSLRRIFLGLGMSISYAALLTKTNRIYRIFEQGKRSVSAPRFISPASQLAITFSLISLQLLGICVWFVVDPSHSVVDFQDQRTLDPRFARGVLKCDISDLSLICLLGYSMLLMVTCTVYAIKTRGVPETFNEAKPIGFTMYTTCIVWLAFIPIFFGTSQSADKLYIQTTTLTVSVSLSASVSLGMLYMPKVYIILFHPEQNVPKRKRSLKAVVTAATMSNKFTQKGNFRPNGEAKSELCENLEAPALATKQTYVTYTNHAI

Nc1cccnc1C(=O)Nc1cccc(Cl)c1 [Compound 7]
fold less potent than 6 (human mGlu4; mGlu4 PAM EC50 relative to 6): ~ 7 fold

Nc1cccnc1C(=O)Nc1ccc(N2C(=O)c3ccccc3C2=O)c(Cl)c1 [Compound 17a, N-(3-chloro-4-(1,3-dioxoisoindolin-2-yl)phenyl)-3-aminopicolinamide]
reversal of haloperidol-induced catalepsy at 1 mg/kg p.o. ([1]; 1 mg/kg p.o., haloperidol 1.5 mg/kg, side-by-side with 6): as efficacious as 6
reversal of haloperidol-induced catalepsy (in words) ([1]; haloperidol 1.5 mg/kg): robust efficacy
total brain level, fold above the rat mGlu4 PAM EC50 [2]: greater than 2 fold
mGlu4 PAM activity (in words) (human mGlu4): good PAM activity
selectivity versus the other mGlu receptors (other mGlu receptors): excellent selectivity

Cc1cccc2c1C(=O)N(c1ccc(NC(=O)c3ncccc3N)cc1Cl)C2=O [Compound 17d]
mGlu4 PAM activity (in words) (human mGlu4): good PAM activity

Nc1cccnc1C(=O)Nc1ccc(N2Cc3ccccc3C2=O)c(Cl)c1 [Compound 17e]
mGlu4 PAM activity (in words) (human mGlu4): good PAM activity

Nc1cccnc1C(=O)Nc1ccc(N2Cc3ccc(Cl)cc3C2=O)c(Cl)c1 [Compound 17g]
mGlu4 PAM activity (in words) (human mGlu4): devoid of PAM activity

COc1ccc2c(c1)C(=O)N(c1ccc(NC(=O)c3ncccc3N)cc1Cl)C2 [Compound 17h]
mGlu4 PAM activity (in words) (human mGlu4): good PAM activity

CCc1cnc(Oc2ccc(NC(=O)c3ncccc3N)cc2Cl)nc1 [Compound 17t]
reversal of haloperidol-induced catalepsy at 3 mg/kg p.o. ([1]; 3 mg/kg p.o., comparable to 6 at 10 mg/kg p.o.): robust reversal
reversal of haloperidol-induced catalepsy (in words) ([1]; haloperidol 1.5 mg/kg): more efficacious than 6
total brain level, fold above the rat mGlu4 PAM EC50 [2]: greater than 3.5 fold
selectivity versus the other mGlu receptors (other mGlu receptors): excellent selectivity

CCc1cnc(Oc2ccc(NC(=O)c3ccncc3N)cc2Cl)nc1 [Compound 19]
mGlu4 PAM activity (in words) (human mGlu4): devoid of mGlu4 PAM activity

CCc1cnc(Oc2ccc(NC(=O)c3nccnc3N)cc2Cl)nc1 [Compound 20]
fold loss of potency relative to 17t (human mGlu4; mGlu4 PAM EC50 relative to 17t): ~ 5 fold
